From patent US20250145665A1, “MACROCYCLIC PEPTIDES USEFUL AS MODULATORS OF TNF ALPHA” (Bristol-Myers Squibb Company, priority 2023, published 2025)
Positions of bridges follow the written chain, without caps; N, C: chain ends. Non-standard residues stand in square brackets, D forms with d. Residues, ends and D or L forms follow the SMILES beside them. Bip(4'-COOH) = N[C@@H](Cc1ccc(-c2ccc(C(=O)O)cc2)cc1)C(=O)O; Bip(4'-NHAc) = CC(=O)Nc1ccc(-c2ccc(C[C@H](N)C(=O)O)cc2)cc1; Ala(morpholin-4-yl) = N[C@@H](CN1CCOCC1)C(=O)O; Bip = N[C@@H](Cc1ccc(-c2ccccc2)cc1)C(=O)O; 3Pal = N[C@@H](Cc1cccnc1)C(=O)O; Sar = CNCC(=O)O

Each compound was assayed against TNFα (Homo sapiens, UniProt P01375) (assay: TNF-Induced HEK-Blue Assay). Settings: HEK-Blue-CD40L cells, NF-kB-driven secreted alkaline phosphatase reporter; TNFα 0.5 ng/ml; 18 h; read-out: TNF induced HEK-Blue assay IC50 value.
Sequence of TNFα (P01375 77-233 limits assumed): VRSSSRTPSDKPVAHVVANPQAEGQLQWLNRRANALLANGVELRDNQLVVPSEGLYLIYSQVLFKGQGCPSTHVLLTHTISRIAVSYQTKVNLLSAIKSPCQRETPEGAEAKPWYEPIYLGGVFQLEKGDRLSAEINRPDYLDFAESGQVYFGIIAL
Format: cell-based

IC50 [nM]	Compound
200 to 2000	CC(C)C[C@@H]1NC(=O)[C@H](Cc2ccc(O)cc2)NC(=O)[C@H](C(C)C)NC(=O)[C@@H]2CCCN2C(=O)[C@H](Cc2cccnc2)NC(=O)[C@@H](CCCNC(=N)N)NC(=O)[C@H](CC(=O)O)NC(=O)[C@H](Cc2ccc(O)cc2)NC(=O)CN(C)C(=O)[C@H](Cc2ccc(-c3ccccc3)cc2)NC(=O)[C@H](Cc2ccc(-c3ccccc3)cc2)NC(=O)[C@H](CN2CCOCC2)NC(=O)CSC[C@@H](C(=O)NCC(N)=O)NC1=O [Example 118] ({CH2CO}-[Ala(morpholin-4-yl)][Bip][Bip][Sar]YD[dR][3Pal]PVYLCG-NH2; thioether N-13)
200 to 2000	CC(C)C[C@@H]1NC(=O)[C@H](Cc2ccc(O)cc2)NC(=O)[C@H](C(C)C)NC(=O)[C@@H]2CCCN2C(=O)[C@H](Cc2cccnc2)NC(=O)[C@@H](CCCNC(=N)N)NC(=O)[C@H](CC(=O)O)NC(=O)[C@@H]2CCCN2C(=O)CN(C)C(=O)[C@H](Cc2ccc(-c3ccccc3)cc2)NC(=O)[C@H](Cc2ccc(-c3ccccc3)cc2)NC(=O)[C@H](CN2CCOCC2)NC(=O)CSC[C@@H](C(=O)NCC(N)=O)NC1=O [Example 119] ({CH2CO}-[Ala(morpholin-4-yl)][Bip][Bip][Sar]PD[dR][3Pal]PVYLCG-NH2; thioether N-13)
50 to 200	CC(C)C[C@@H]1NC(=O)[C@H](CCCNC(=N)N)NC(=O)[C@H](C(C)C)NC(=O)[C@@H]2CCCN2C(=O)[C@H](C(C)C)NC(=O)[C@H](CCCNC(=N)N)NC(=O)[C@H](CC(=O)O)NC(=O)[C@@H]2CCCN2C(=O)CN(C)C(=O)[C@H](Cc2ccc(-c3ccccc3)cc2)NC(=O)[C@H](Cc2ccc(-c3ccc(C(=O)O)cc3)cc2)NC(=O)[C@H](CN2CCOCC2)NC(=O)CSC[C@@H](C(=O)NCC(N)=O)NC1=O [Example 120] ({CH2CO}-[Ala(morpholin-4-yl)][Bip(4'-COOH)][Bip][Sar]PDRVPVRLCG-NH2; thioether N-13)
200 to 2000	CC(C)C[C@@H]1NC(=O)[C@H](Cc2ccc(O)cc2)NC(=O)[C@H](C(C)C)NC(=O)[C@@H]2CCCN2C(=O)[C@H](C(C)C)NC(=O)[C@H](CCCNC(=N)N)NC(=O)[C@H](CC(=O)O)NC(=O)[C@H](Cc2ccc(O)cc2)NC(=O)CN(C)C(=O)[C@H](Cc2ccc(-c3ccccc3)cc2)NC(=O)[C@H](Cc2ccc(-c3ccc(C(=O)O)cc3)cc2)NC(=O)[C@H](CN2CCOCC2)NC(=O)CSC[C@@H](C(=O)NCC(N)=O)NC1=O [Example 121] ({CH2CO}-[Ala(morpholin-4-yl)][Bip(4'-COOH)][Bip][Sar]YDRVPVYLCG-NH2; thioether N-13)
200 to 2000	CC(C)C[C@@H]1NC(=O)[C@H](CCCNC(=N)N)NC(=O)[C@H](C(C)C)NC(=O)[C@@H]2CCCN2C(=O)[C@H](Cc2ccc(O)cc2)NC(=O)[C@H](CCCNC(=N)N)NC(=O)[C@H](CC(=O)O)NC(=O)[C@@H]2CCCN2C(=O)CN(C)C(=O)[C@H](Cc2ccc(-c3ccccc3)cc2)NC(=O)[C@H](Cc2ccc(-c3ccc(C(=O)O)cc3)cc2)NC(=O)[C@H](CN2CCOCC2)NC(=O)CSC[C@@H](C(=O)NCC(N)=O)NC1=O [Example 122] ({CH2CO}-[Ala(morpholin-4-yl)][Bip(4'-COOH)][Bip][Sar]PDRYPVRLCG-NH2; thioether N-13)
50 to 200	CC(C)C[C@@H]1NC(=O)[C@H](CCCNC(=N)N)NC(=O)[C@H](C(C)C)NC(=O)[C@@H]2CCCN2C(=O)[C@H](C(C)C)NC(=O)[C@@H](CCCNC(=N)N)NC(=O)[C@H](CC(=O)O)NC(=O)[C@@H]2CCCN2C(=O)CN(C)C(=O)[C@H](Cc2ccc(-c3ccccc3)cc2)NC(=O)[C@H](Cc2ccc(-c3ccc(C(=O)O)cc3)cc2)NC(=O)[C@H](CN2CCOCC2)NC(=O)CSC[C@@H](C(=O)NCC(N)=O)NC1=O [Example 123] ({CH2CO}-[Ala(morpholin-4-yl)][Bip(4'-COOH)][Bip][Sar]PD[dR]VPVRLCG-NH2; thioether N-13)
50 to 200	CC(C)C[C@@H]1NC(=O)[C@H](Cc2ccc(O)cc2)NC(=O)[C@H](C(C)C)NC(=O)[C@@H]2CCCN2C(=O)[C@H](C(C)C)NC(=O)[C@H](CCCNC(=N)N)NC(=O)[C@H](CC(=O)O)NC(=O)[C@@H]2CCCN2C(=O)CN(C)C(=O)[C@H](Cc2ccc(-c3ccccc3)cc2)NC(=O)[C@H](Cc2ccc(-c3ccc(C(=O)O)cc3)cc2)NC(=O)[C@H](CN2CCOCC2)NC(=O)CSC[C@@H](C(=O)NCC(N)=O)NC1=O [Example 124] ({CH2CO}-[Ala(morpholin-4-yl)][Bip(4'-COOH)][Bip][Sar]PDRVPVYLCG-NH2; thioether N-13)
< 50	CC(=O)Nc1ccc(-c2ccc(C[C@@H]3NC(=O)[C@H](Cc4ccc(-c5ccccc5)cc4)NC(=O)[C@H](CN4CCOCC4)NC(=O)CSC[C@@H](C(=O)NCC(N)=O)NC(=O)[C@H](CC(C)C)NC(=O)[C@H](Cc4ccc(O)cc4)NC(=O)[C@H](C(C)C)NC(=O)[C@@H]4CCCN4C(=O)[C@H](C(C)C)NC(=O)[C@@H](CCCNC(=N)N)NC(=O)[C@H](CC(=O)O)NC(=O)[C@@H]4CCCN4C(=O)CN(C)C3=O)cc2)cc1 [Example 125] ({CH2CO}-[Ala(morpholin-4-yl)][Bip][Bip(4'-NHAc)][Sar]PD[dR]VPVYLCG-NH2; thioether N-13)
50 to 200	CC(=O)Nc1ccc(-c2ccc(C[C@@H]3NC(=O)[C@H](Cc4ccc(-c5ccccc5)cc4)NC(=O)[C@H](CN4CCOCC4)NC(=O)CSC[C@@H](C(=O)NCC(N)=O)NC(=O)[C@H](CC(C)C)NC(=O)[C@H](CCCNC(=N)N)NC(=O)[C@H](C(C)C)NC(=O)[C@@H]4CCCN4C(=O)[C@H](C(C)C)NC(=O)[C@H](CCCNC(=N)N)NC(=O)[C@H](CC(=O)O)NC(=O)[C@@H]4CCCN4C(=O)CN(C)C3=O)cc2)cc1 [Example 126] ({CH2CO}-[Ala(morpholin-4-yl)][Bip][Bip(4'-NHAc)][Sar]PDRVPVRLCG-NH2; thioether N-13)
50 to 200	CC(=O)Nc1ccc(-c2ccc(C[C@@H]3NC(=O)[C@H](Cc4ccc(-c5ccccc5)cc4)NC(=O)[C@H](CN4CCOCC4)NC(=O)CSC[C@@H](C(=O)NCC(N)=O)NC(=O)[C@H](CC(C)C)NC(=O)[C@H](CCCNC(=N)N)NC(=O)[C@H](C(C)C)NC(=O)[C@@H]4CCCN4C(=O)[C@H](Cc4ccc(O)cc4)NC(=O)[C@H](CCCNC(=N)N)NC(=O)[C@H](CC(=O)O)NC(=O)[C@@H]4CCCN4C(=O)CN(C)C3=O)cc2)cc1 [Example 127] ({CH2CO}-[Ala(morpholin-4-yl)][Bip][Bip(4'-NHAc)][Sar]PDRYPVRLCG-NH2; thioether N-13)
< 50	CC(=O)Nc1ccc(-c2ccc(C[C@@H]3NC(=O)[C@H](Cc4ccc(-c5ccccc5)cc4)NC(=O)[C@H](CN4CCOCC4)NC(=O)CSC[C@@H](C(=O)NCC(N)=O)NC(=O)[C@H](CC(C)C)NC(=O)[C@H](CCCNC(=N)N)NC(=O)[C@H](C(C)C)NC(=O)[C@@H]4CCCN4C(=O)[C@H](C(C)C)NC(=O)[C@@H](CCCNC(=N)N)NC(=O)[C@H](CC(=O)O)NC(=O)[C@@H]4CCCN4C(=O)CN(C)C3=O)cc2)cc1 [Example 128] ({CH2CO}-[Ala(morpholin-4-yl)][Bip][Bip(4'-NHAc)][Sar]PD[dR]VPVRLCG-NH2; thioether N-13)
200 to 2000	CC(C)C[C@@H]1NC(=O)[C@H](Cc2ccc(O)cc2)NC(=O)[C@H](C(C)C)NC(=O)[C@@H]2CCCN2C(=O)[C@H](C(C)C)NC(=O)[C@@H](CCCNC(=N)N)NC(=O)[C@H](CC(=O)O)NC(=O)[C@@H]2CCCN2C(=O)CNC(=O)[C@H](Cc2ccc(-c3ccccc3)cc2)NC(=O)[C@H](Cc2ccc(-c3ccccc3)cc2)NC(=O)[C@H](CN2CCOCC2)NC(=O)CSC[C@@H](C(=O)NCC(N)=O)NC1=O [Example 129] ({CH2CO}-[Ala(morpholin-4-yl)][Bip][Bip]GPD[dR]VPVYLCG-NH2; thioether N-13)
200 to 2000	CC(C)C[C@@H]1NC(=O)[C@H](CCCNC(=N)N)NC(=O)[C@H](C(C)C)NC(=O)[C@@H]2CCCN2C(=O)[C@H](C(C)C)NC(=O)[C@@H](CCCNC(=N)N)NC(=O)[C@H](CC(=O)O)NC(=O)[C@@H]2CCCN2C(=O)CNC(=O)[C@H](Cc2ccc(-c3ccccc3)cc2)NC(=O)[C@H](Cc2ccc(-c3ccccc3)cc2)NC(=O)[C@H](CN2CCOCC2)NC(=O)CSC[C@@H](C(=O)NCC(N)=O)NC1=O [Example 130] ({CH2CO}-[Ala(morpholin-4-yl)][Bip][Bip]GPD[dR]VPVRLCG-NH2; thioether N-13)
50 to 200	CC(C)C[C@@H]1NC(=O)[C@H](Cc2ccc(O)cc2)NC(=O)[C@H](C(C)C)NC(=O)[C@@H]2CCCN2C(=O)[C@H](C(C)C)NC(=O)[C@@H](CCCNC(=N)N)NC(=O)[C@H](CC(=O)O)NC(=O)[C@H](Cc2ccc(O)cc2)NC(=O)CNC(=O)[C@H](Cc2ccc(-c3ccccc3)cc2)NC(=O)[C@H](Cc2ccc(-c3ccccc3)cc2)NC(=O)[C@H](CN2CCOCC2)NC(=O)CSC[C@@H](C(=O)NCC(N)=O)NC1=O [Example 131] ({CH2CO}-[Ala(morpholin-4-yl)][Bip][Bip]GYD[dR]VPVYLCG-NH2; thioether N-13)
50 to 200	CC(C)C[C@@H]1NC(=O)[C@H](CCCNC(=N)N)NC(=O)[C@H](C(C)C)NC(=O)[C@@H]2CCCN2C(=O)[C@H](C(C)C)NC(=O)[C@@H](CCCNC(=N)N)NC(=O)[C@H](CC(=O)O)NC(=O)[C@H](Cc2ccc(O)cc2)NC(=O)CNC(=O)[C@H](Cc2ccc(-c3ccccc3)cc2)NC(=O)[C@H](Cc2ccc(-c3ccccc3)cc2)NC(=O)[C@H](CN2CCOCC2)NC(=O)CSC[C@@H](C(=O)NCC(N)=O)NC1=O [Example 132] ({CH2CO}-[Ala(morpholin-4-yl)][Bip][Bip]GYD[dR]VPVRLCG-NH2; thioether N-13)
200 to 2000	CC(C)C[C@@H]1NC(=O)[C@H](Cc2ccc(O)cc2)NC(=O)[C@H](C(C)C)NC(=O)[C@@H]2CCCN2C(=O)[C@H](C(C)C)NC(=O)[C@H](CCCNC(=N)N)NC(=O)[C@H](CC(N)=O)NC(=O)[C@@H]2CCCN2C(=O)CN(C)C(=O)[C@H](Cc2ccc(-c3ccccc3)cc2)NC(=O)[C@H](Cc2ccc(-c3ccccc3)cc2)NC(=O)[C@H](CN2CCOCC2)NC(=O)CSC[C@@H](C(=O)NCC(N)=O)NC1=O [Example 133] ({CH2CO}-[Ala(morpholin-4-yl)][Bip][Bip][Sar]PNRVPVYLCG-NH2; thioether N-13)
